Data taken from patent US6479435B1, “Diaryl ethers and processes for their preparation and herbicidal and desiccant compositions containing them” (ISK Americas Incorporated, priority 1997, dated 2002).

What was measured:
Format in all cases: in vivo
[1] = test system: field corn (Zea mays L., var. Dekalb 535, CORN); experiment: Pre-emerge greenhouse test, crop damage rating; settings: 14 days after application, rating scale 0-100
How it was run: (§1)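 Seeds sown in sandy loam mix one day before track-sprayer application of compounds in acetone at 125–1000 g ai/ha (187 l/ha), then surface-watered to incorporate and bottom-watered. Visual rating 14 days after application on a 0–100 scale (0 = no damage, 100 = all plants dead).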

[2] = test system: upland rice (Oryza sp., var.Tebonnet, RICE); experiment: Pre-emerge greenhouse test, crop damage rating; settings: 14 days after application, rating scale 0-100
How it was run: as §1

[3] = test system: field corn (Zea mays L., var. Dekalb 535, CORN); experiment: Post-emerge greenhouse test, crop damage rating; settings: 14 days after application
How it was run: (§2)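 Compounds in acetone with 0.25% v/v non-ionic surfactant were track-sprayed at 187 l/ha over plants at the 2-3 leaf stage, at 63 to 1000 g ai/ha. Pots were bottom-watered. Injury was scored visually 14 days later on a 0-100 scale, where 0 is no damage and 100 is complete plant death.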

[4] = test system: upland rice (Oryza sp., var.Tebonnet, RICE); experiment: Post-emerge greenhouse test, crop damage rating; settings: 14 days after application
How it was run: as §2

[5] = test system: soybean (Glycine max L., var. Pella 86, SOY); experiment: Pre-emerge greenhouse test, crop damage rating; settings: 14 days after application, rating scale 0-100
How it was run: as §1

[6] = test system: common ragweed (Ambrosia artemisiifolia L., AMBEL); experiment: Post-emerge greenhouse herbicide test, phytotoxicity rating; settings: 14 days after application
How it was run: as §2

[7] = test system: soybean (Glycine max L., var. Pella 86, SOY); experiment: Post-emerge greenhouse test, crop damage rating; settings: 14 days after application
How it was run: as §2

[8] = test system: Johnsongrass (Sorghum halepense, SORHA); experiment: Pre-emerge greenhouse herbicide test, phytotoxicity rating; settings: 14 days after application, rating scale 0-100
How it was run: as §1

[9] = test system: large crabgrass (Digitaria sanguinalis, DIGSA); experiment: as above; settings: 14 days after application, rating scale 0-100
How it was run: as §1

[10] = test system: sicklepod (Cassia obtusifolia, CASOB); experiment: as above; settings: 14 days after application, rating scale 0-100
How it was run: as §1

[11] = test system: redroot pigweed (Amaranthus retroflexus, AMARE); experiment: as above; settings: 14 days after application, rating scale 0-100
How it was run: as §1

[12] = test system: common ragweed (Ambrosia artemisiifolia L., AMBEL); experiment: as above; settings: 14 days after application, rating scale 0-100
How it was run: as §1

[13] = test system: ivyleaf morningglory (Ipomoea hederacea, IPOHE); experiment: as above; settings: 14 days after application, rating scale 0-100
How it was run: as §1

[14] = test system: velvetleaf (Abutilon theophrasti, ABUTH); experiment: as above; settings: 14 days after application, rating scale 0-100
How it was run: as §1

[15] = test system: barnyardgrass (Echinochloa crusgalli, ECHCG); experiment: as above; settings: 14 days after application, rating scale 0-100
How it was run: as §1

[16] = test system: lambsquarters (Chenopodium album, CHEAL); experiment: as above; settings: 14 days after application, rating scale 0-100
How it was run: as §1

[17] = test system: green foxtail (Setaria viridis, SETVI); experiment: as above; settings: 14 days after application, rating scale 0-100
How it was run: as §1

[18] = test system: Johnsongrass (Sorghum halepense, SORHA); experiment: Post-emerge greenhouse herbicide test, phytotoxicity rating; settings: 14 days after application
How it was run: as §2

[19] = test system: large crabgrass (Digitaria sanguinalis, DIGSA); experiment: as above; settings: 14 days after application
How it was run: as §2

[20] = test system: sicklepod (Cassia obtusifolia, CASOB); experiment: as above; settings: 14 days after application
How it was run: as §2

[21] = test system: redroot pigweed (Amaranthus retroflexus, AMARE); experiment: as above; settings: 14 days after application
How it was run: as §2

[22] = test system: ivyleaf morningglory (Ipomoea hederacea, IPOHE); experiment: as above; settings: 14 days after application
How it was run: as §2

[23] = test system: velvetleaf (Abutilon theophrasti, ABUTH); experiment: as above; settings: 14 days after application
How it was run: as §2

[24] = test system: barnyardgrass (Echinochloa crusgalli, ECHCG); experiment: as above; settings: 14 days after application
How it was run: as §2

[25] = test system: lambsquarters (Chenopodium album, CHEAL); experiment: as above; settings: 14 days after application
How it was run: as §2

[26] = test system: green foxtail (Setaria viridis, SETVI); experiment: as above; settings: 14 days after application
How it was run: as §2

SMILES: O=c1n(CCCF)nnn1-c1cc(Oc2ccc(C(F)(F)F)cn2)c(Cl)cc1Cl [Compound 6-9]
- crop damage rating CORN ([1]; 125 g ai/ha): 0
- crop damage rating CORN ([1]; 500 g ai/ha): 0
- crop damage rating RICE ([2]; 125 g ai/ha): 0
- crop damage rating RICE ([2]; 500 g ai/ha): 0
- CORN crop damage rating (0-100) ([3]; 63 g al/ha): 0
- CORN crop damage rating (0-100) ([3]; 250 g al/ha): 0
- RICE crop damage rating (0-100) ([4]; 63 g al/ha): 0
- RICE crop damage rating (0-100) ([4]; 250 g al/ha): 0
- crop damage rating SOY ([5]; 125 g ai/ha): 0
- crop damage rating SOY ([5]; 500 g ai/ha): 0
- AMBEL phytotoxicity rating (0-100) ([6]; 63 g al/ha): 0
- AMBEL phytotoxicity rating (0-100) ([6]; 250 g al/ha): 0
- SOY crop damage rating (0-100) ([7]; 63 g al/ha): 0
- SOY crop damage rating (0-100) ([7]; 250 g al/ha): 0
- phytotoxicity rating SORHA ([8]; 125 g ai/ha): 0
- phytotoxicity rating SORHA ([8]; 500 g ai/ha): 0
- phytotoxicity rating DIGSA ([9]; 125 g ai/ha): 0
- phytotoxicity rating DIGSA ([9]; 500 g ai/ha): 0
- phytotoxicity rating CASOB ([10]; 125 g ai/ha): 0
- phytotoxicity rating CASOB ([10]; 500 g ai/ha): 0
- phytotoxicity rating AMARE ([11]; 125 g ai/ha): 0
- phytotoxicity rating AMARE ([11]; 500 g ai/ha): 0
- phytotoxicity rating AMBEL ([12]; 125 g ai/ha): 0
- phytotoxicity rating AMBEL ([12]; 500 g ai/ha): 0
- phytotoxicity rating IPOHE ([13]; 125 g ai/ha): 0
- phytotoxicity rating IPOHE ([13]; 500 g ai/ha): 0
- phytotoxicity rating ABUTH ([14]; 125 g ai/ha): 0
- phytotoxicity rating ABUTH ([14]; 500 g ai/ha): 0
- phytotoxicity rating ECHCG ([15]; 125 g ai/ha): 0
- phytotoxicity rating ECHCG ([15]; 500 g ai/ha): 0
- phytotoxicity rating CHEAL ([16]; 125 g ai/ha): 0
- phytotoxicity rating CHEAL ([16]; 500 g ai/ha): 0
- phytotoxicity rating SETVI ([17]; 125 g ai/ha): 0
- phytotoxicity rating SETVI ([17]; 500 g ai/ha): 0
- SORHA phytotoxicity rating (0-100) ([18]; 63 g al/ha): 0
- SORHA phytotoxicity rating (0-100) ([18]; 250 g al/ha): 0
- DIGSA phytotoxicity rating (0-100) ([19]; 63 g al/ha): 0
- DIGSA phytotoxicity rating (0-100) ([19]; 250 g al/ha): 0
- CASOB phytotoxicity rating (0-100) ([20]; 63 g al/ha): 0
- CASOB phytotoxicity rating (0-100) ([20]; 250 g al/ha): 0
- AMARE phytotoxicity rating (0-100) ([21]; 63 g al/ha): 0
- AMARE phytotoxicity rating (0-100) ([21]; 250 g al/ha): 0
- IPOHE phytotoxicity rating (0-100) ([22]; 63 g al/ha): 0
- IPOHE phytotoxicity rating (0-100) ([22]; 250 g al/ha): 0
- ABUTH phytotoxicity rating (0-100) ([23]; 63 g al/ha): 0
- ABUTH phytotoxicity rating (0-100) ([23]; 250 g al/ha): 0
- ECHCG phytotoxicity rating (0-100) ([24]; 63 g al/ha): 0
- ECHCG phytotoxicity rating (0-100) ([24]; 250 g al/ha): 0
- CHEAL phytotoxicity rating (0-100) ([25]; 63 g al/ha): 0
- CHEAL phytotoxicity rating (0-100) ([25]; 250 g al/ha): 0
- SETVI phytotoxicity rating (0-100) ([26]; 63 g al/ha): 0
- SETVI phytotoxicity rating (0-100) ([26]; 250 g al/ha): 0

SMILES: COc1cc(OC)nc(Oc2cc(-n3nnn(CCCF)c3=O)c(F)cc2Cl)n1 [Compound 6-15]
- crop damage rating CORN ([1]; 125 g ai/ha): 0
- crop damage rating CORN ([1]; 500 g ai/ha): 100
- crop damage rating RICE ([2]; 125 g ai/ha): 0
- crop damage rating RICE ([2]; 500 g ai/ha): 10
- CORN crop damage rating (0-100) ([3]; 63 g al/ha): 0
- CORN crop damage rating (0-100) ([3]; 500 g al/ha): 5
- RICE crop damage rating (0-100) ([4]; 63 g al/ha): 0
- RICE crop damage rating (0-100) ([4]; 500 g al/ha): 5
- crop damage rating SOY ([5]; 125 g ai/ha): 0
- crop damage rating SOY ([5]; 500 g ai/ha): 0
- AMBEL phytotoxicity rating (0-100) ([6]; 63 g al/ha): 0
- AMBEL phytotoxicity rating (0-100) ([6]; 500 g al/ha): 20
- SOY crop damage rating (0-100) ([7]; 63 g al/ha): 0
- SOY crop damage rating (0-100) ([7]; 500 g al/ha): 40
- phytotoxicity rating SORHA ([8]; 125 g ai/ha): 0
- phytotoxicity rating SORHA ([8]; 500 g ai/ha): 10
- phytotoxicity rating DIGSA ([9]; 125 g ai/ha): 10
- phytotoxicity rating DIGSA ([9]; 500 g ai/ha): 60
- phytotoxicity rating CASOB ([10]; 125 g ai/ha): 0
- phytotoxicity rating CASOB ([10]; 500 g ai/ha): 30
- phytotoxicity rating AMARE ([11]; 125 g ai/ha): 30
- phytotoxicity rating AMARE ([11]; 500 g ai/ha): 100
- phytotoxicity rating AMBEL ([12]; 125 g ai/ha): 0
- phytotoxicity rating AMBEL ([12]; 500 g ai/ha): 0
- phytotoxicity rating IPOHE ([13]; 125 g ai/ha): 0
- phytotoxicity rating IPOHE ([13]; 500 g ai/ha): 10
- phytotoxicity rating ABUTH ([14]; 125 g ai/ha): 20
- phytotoxicity rating ABUTH ([14]; 500 g ai/ha): 100
- phytotoxicity rating ECHCG ([15]; 125 g ai/ha): 0
- phytotoxicity rating ECHCG ([15]; 500 g ai/ha): 0
- phytotoxicity rating CHEAL ([16]; 125 g ai/ha): 20
- phytotoxicity rating CHEAL ([16]; 500 g ai/ha): 100
- phytotoxicity rating SETVI ([17]; 125 g ai/ha): 10
- phytotoxicity rating SETVI ([17]; 500 g ai/ha): 90
- SORHA phytotoxicity rating (0-100) ([18]; 63 g al/ha): 0
- SORHA phytotoxicity rating (0-100) ([18]; 500 g al/ha): 10
- DIGSA phytotoxicity rating (0-100) ([19]; 63 g al/ha): 0
- DIGSA phytotoxicity rating (0-100) ([19]; 500 g al/ha): 0
- CASOB phytotoxicity rating (0-100) ([20]; 63 g al/ha): 20
- CASOB phytotoxicity rating (0-100) ([20]; 500 g al/ha): 40
- AMARE phytotoxicity rating (0-100) ([21]; 63 g al/ha): 20
- AMARE phytotoxicity rating (0-100) ([21]; 500 g al/ha): 95
- IPOHE phytotoxicity rating (0-100) ([22]; 63 g al/ha): 20
- IPOHE phytotoxicity rating (0-100) ([22]; 500 g al/ha): 70
- ABUTH phytotoxicity rating (0-100) ([23]; 63 g al/ha): 60
- ABUTH phytotoxicity rating (0-100) ([23]; 500 g al/ha): 99
- ECHCG phytotoxicity rating (0-100) ([24]; 63 g al/ha): 0
- ECHCG phytotoxicity rating (0-100) ([24]; 500 g al/ha): 0
- CHEAL phytotoxicity rating (0-100) ([25]; 63 g al/ha): 50
- CHEAL phytotoxicity rating (0-100) ([25]; 500 g al/ha): 90
- SETVI phytotoxicity rating (0-100) ([26]; 63 g al/ha): 0
- SETVI phytotoxicity rating (0-100) ([26]; 500 g al/ha): 40
